Reference: patent US20260216342A1, “COMPOUNDS FOR NUCLEIC ACID CLEAVAGE” (priority 2023, published 2026)

Legend:
SARS-CoV-2 [1] = type: in vivo, K18-hACE2 transgenic mice; conditions: 10 mg/kg intranasally 1 hour pre-infection and 3 hours post-infection, day 5, plaque assay
SARS-CoV-2 [2] = assay: Virucidal activity on cell free virions; conditions: 6 μM, 1 h at 37° C., 1000 PFU, plaque assay
[3] = test system: RNA 69-er corresponding to the coronaviral pseudoknot; type: biochemical; conditions: 1 mM, 3 h incubation at 37° C.
SARS-CoV-2 [4] = type: cell-based; conditions: Vero CCL-81, MOI 0.05, 24 h
SARS-CoV-2 [5] = assay: Viral plaque-forming units by plaque assay; type: cell-based; conditions: supernatants of cultures treated with 6 mM for 24 h, vs vehicle control
[6] = test system: RNA extracted from SARS-CoV-2; assay: Gel electrophoresis of SARS-CoV-2 RNA after degrader incubation; type: biochemical; conditions: 100 μM, 2 h at 37° C.; FIG. 5f
G4-forming RNA oligomer = assay: Degradation of G4-forming RNA oligomer by non-covalent PDS-based degraders; type: biochemical; conditions: 200 μM, CuSO4/THPTA/NaAsc, 37° C. for 4 h, LC-MS; FIG. 15
Experimental: […]. The mixture was heated at 95° C. for 5 minutes, then kept on ice for 30 minutes. CuSO4 (final concentration 200 μM), THPTA (700 μM) and NaAsc (50 mM) were then added, alongside with CBX-PDS, PDS-deg6 or PDS-Amlmi (200 μM). The reaction mixture was incubated at 37° C. for 4 h, quenched with EDTA (final concentration 12 mM) and then kept at 4° C. The reaction mixtures were analysed by LC-MS.

E. coli ribosome = assay: In vitro degradation of E. coli ribosome (agarose gel); type: biochemical; conditions: 15 mM to 0.47 mM, 18 hours at 37° C.
Experimental: The degradation activity was measured in an in vitro assay, targeting the E. coli ribosome. 200 μM […] were incubated with degrader in different concentration, ranging from 15 mM to 0.47 mM, for 18 hours at 37° C. Evaluation was made by agarose gel analysis.

CCOC(=O)c1ccccc1NC(=O)N1CCCN(Cc2csc(C)n2)CC1 [MTDB]
lung viral load (SARS-CoV-2 [1]): No differences in lung viral load
virucidal effect on cell free virus (SARS-CoV-2 [2]): no virucidal effect was observed
degradation of RNA pseudoknot [3]: no degradation
antiviral effect (coronaviral RNA in cells) (SARS-CoV-2 [4]; added before or after infection): did not exhibit an antiviral effect
50% inhibitory concentration (IC50) (SARS-CoV-2 [4]; drug added 1 h before or 1 h after infection): did not inhibit viral replication and thus IC50 values could not be determined
number of viral plaques (SARS-CoV-2 [5]): only showed decreased number of viral plaques when added before infection
degradation of full-length coronaviral RNA on agarose gel [6]: the two control molecules do not

CN(C)Cc1nccn1CCOCCOCCOCCOCCOCCn1cc(COc2cc(C(=O)Nc3cc(OCCN)c4ccccc4n3)nc(C(=O)Nc3cc(OCCN)c4ccccc4n3)c2)nn1 [PDS-Amimi]
degrader potency on G4-forming RNA oligomer (G4-forming RNA oligomer): more potent degrader than PDS-deg6

O=C(N[C@H](CO)[C@H](O)c1ccc([N+](=O)[O-])cc1)C(Cl)Cl [chloramphenicol, Chloramphenicol]
ribosome degradation (E. coli ribosome): no degradation

chloramphenicol-2PEG-imidazole degrader [18b]
ribosome degradation (E. coli ribosome): ribosome degradation could be observed at a concentration of 15 mM

chloramphenicol-6PEG-imidazole degrader [18a]
ribosome degradation (E. coli ribosome): no degradation visible

chloramphenicol-ethyl-imidazole degrader [18c]
ribosome degradation (E. coli ribosome): no degradation visible
